Read-outs that look alike come from different tables or passages of the source.
Columns and labels:
Assay type in all cases: cell-based, human
[1] = tested on: senescent A549 cells (etoposide-induced); test: Nuclei count senolytic assay, therapy-induced senescence (TIS) model, senescent cells; conditions: Homo sapiens, A549, Senescent cells, mean, read-out: Mean % Cell Survival
Procedure: We performed a second validation of the effectiveness of our machine learning models using a different stressor. We focused on therapy-induced senescence (TIS, Supplementary Fig. 6a), where human epithelial cancerous cells (A549) were induced to become senescent by addition of etoposide. Cells were treated with 100 μM etoposide for 48 h, followed by another three days of exposure to media in standard conditions.
(§1) We performed experimental validation of the compounds with z-score > 8 (Fig. 2e). […] We employed two cellular models of senescence: one of OIS and a second one of TIS. For the OIS case, we utilised IMR90 ER:RAS cells with 4-OHT at 100 nM. […] For the TIS model, we used A549 cells with etoposide at 100 μM. The exposure of the cells to etoposide lasted 48 h, after which period the cells were cultivated for a further three days with normal media.
(§2) IMR90 (CCL-186) human foetal lung fibroblasts and A549 (CCL-185) human lung adenocarcinoma cells were obtained from the American Type Culture Collection (ATCC, Manassas, VA). The cell lines were confirmed to be mycoplasma negative (Lonza MycoAlert, cat #LT07-118). IMR90 ER:RAS is a derivative of IMR90 cells expressing a switchable version of oncogenic H-Ras[84]. IMR90 ER:RAS and A549 cells were maintained in Dulbecco’s Modified Eagle Medium (DMEM, ThermoFisher) supplemented with foetal bovine serum (10%), L-glutamine (2 mM, ThermoFisher), and antibiotic-antimycotic solution (1%, ThermoFisher) and incubated under standard tissue culture conditions (37 °C and 5% CO2). For induction of the senescent phenotype, IMR90-ER:RAS cells were cultured in hydroxytamoxifen (4-OHT) (Sigma) added media at 100 nM final concentration. IMR90 were kept in culture for over 27 passages for replicative senescence. Cells were tested for mycoplasma on a regular basis.
(§3) Cells were seeded (50 μL per well) into 384-well plates (IMR90 ER:RAS cells in Nunc Optical Bottom Polybase Microplates [#142761, Thermo Scientific, Rochester, NY] and A549 cells in CELLSTAR Cell Culture Microplates [#781091, Greiner Bio-One, Kremsmünster, Austria]). Cells were incubated under standard tissue culture conditions for 24 h before the addition of compounds. Passage 14 IMR90 ER:RAS cells were seeded at 1300 cells per well in the control condition, and at 1600 cells per well in the senescent case. Passage 34 A549 cells were seeded at 7000 cells per well in the control condition, and at 10,000 cells per well in the senescent case.
(§4) Dose response plates were prepared with a DMSO control and a 10-point […] concentration range, and added to the compounds using a D300e digital dispenser (Tecan Trading AG, Switzerland) at a final concentration of between 10 μM and 10 nM. Every screened condition was carried out in triplicate. After 72 h of incubation with exposure to the compounds, cells were fixed by the addition of an equal volume of formaldehyde (8%, 50 μL; #BP531-500, Fisher Bioreagents, Fisher Scientific, Loughborough, Leicestershire) to the existing media, incubated at room temperature (30 min), and washed three times in phosphate-buffered saline (PBS). Cells were then permeabilised in Triton-X100 (0.1%, 50 μL) and incubated at room temperature (30 min) followed by three more washes with PBS.
(§5) Cells were stained with Hoechst 33342 for nuclei count (excitation/emission wavelength at 387/447 […], DAPI channel, original concentration at 10 mg/ml, final concentration at 2 μg/ml; H1399, Molecular Probes, Eugene, OR). The staining solution was prepared in bovine serum albumin solution (10%). The staining solution was added to each well (30 μL) and incubated in the dark at room temperature (30 min), followed by three washes with PBS and no final aspiration. Plates were foil sealed.
Plates were imaged on an ImageXpress micro XLS (Molecular Devices, Eugene, OR) equipped with a robotic plate loader (Scara4, PAA, UK).

[2] = tested on: non-senescent control IMR90 ER:RAS cells; test: Nuclei count (Hoechst, high content imaging) senolytic assay, OIS model, non-senescent control cells; conditions: Homo sapiens
From the text: (§6) To test for senolytic activity, we compared the effect of each compound on the total cell number (automated high content image-based analysis of total number of nuclei per well) in non-senescent and senescent IMR90 ER:RAS cultures treated with the top hits from the computational screen (Figs. 2e and 3a–d and Supplementary Fig. 4a–c). The drop in cell number compared to untreated controls is indicated by the nuclei count and reflects cell death[13],[15]. As positive control, we employed ouabain, a cardiac glycoside with well characterised senolytic activity.
as §1, §2, §3, §4, §5

[3] = tested on: senescent IMR90 ER:RAS cells (4-OHT-induced); test: Nuclei count (Hoechst, high content imaging) senolytic assay, oncogene-induced senescence (OIS) model, senescent cells; conditions: Homo sapiens, IMR-90, 72 h, Senescent, mean n=3 (Fig 3C), read-out: Mean % Cell Survival
From the text: as §6, §1, §2, §3, §4, §5

For `CO[C@H]1C[C@@H]2CC[C@@H](C)[C@@](O)(O2)C(=O)C(=O)N2CCCC[C@H]2C(=O)O[C@H]([C@H](C)C[C@@H]2CC[C@H](n3cnnn3)[C@H](OC)C2)CC(=O)[C@H](C)/C=C(\C)[C@@H](O)[C@@H](OC)C(=O)[C@H](C)C[C@H](C)/C=C/C=C/C=C/1C` [Zotarolimus, zotarolimus, reference compound], the viability at 10 µM ([1]; log (dose) [M] -5) was 138%, the viability at 4.68 µM ([1]; log (dose) [M] -5.33) was 160% and the viability at 2.19 µM ([1]; log (dose) [M] -5.66) was 123%. For the same compound, the viability at 1 µM ([1]; log (dose) [M] -6) was 143%, the viability at 0.468 µM ([1]; log (dose) [M] -6.33) was 130% and the viability at 0.219 µM ([1]; log (dose) [M] -6.66) was 174%. For the same compound, the viability at 0.1 µM ([1]; log (dose) [M] -7) was 155%, the viability at 0.0468 µM ([1]; log (dose) [M] -7.33) was 136% and the viability at 0.0219 µM ([1]; log (dose) [M] -7.66) was 127%. It also gave a viability at 0.01 µM ([1]; log (dose) [M] -8) of 84.3%, a viability at 10 µM ([2]; IMR-90, 72 h, Control, log (dose) [M] -5, 72 h, mean n=3 (Fig 3C), read-out: Mean % Cell Survival) of 94.7% and a viability at 4.677 µM ([2]; IMR-90, 72 h, Control, log (dose) [M] -5.33, 72 h, mean n=3 (Fig 3C), read-out: Mean % Cell Survival) of 101%. The viability at 2.188 µM ([2]; IMR-90, 72 h, Control, log (dose) [M] -5.66, 72 h, mean n=3 (Fig 3C), read-out: Mean % Cell Survival) was 84.8%, the viability at 1 µM ([2]; IMR-90, 72 h, Control, log (dose) [M] -6, 72 h, mean n=3 (Fig 3C), read-out: Mean % Cell Survival) was 104% and the viability at 0.4677 µM ([2]; IMR-90, 72 h, Control, log (dose) [M] -6.33, 72 h, mean n=3 (Fig 3C), read-out: Mean % Cell Survival) was 108%. The viability at 0.2188 µM ([2]; IMR-90, 72 h, Control, log (dose) [M] -6.66, 72 h, mean n=3 (Fig 3C), read-out: Mean % Cell Survival) was 99.6%, the viability at 0.1 µM ([2]; IMR-90, 72 h, Control, log (dose) [M] -7, 72 h, mean n=3 (Fig 3C), read-out: Mean % Cell Survival) was 95.5% and the viability at 0.04677 µM ([2]; IMR-90, 72 h, Control, log (dose) [M] -7.33, 72 h, mean n=3 (Fig 3C), read-out: Mean % Cell Survival) was 105%. It also gave a viability at 0.02188 µM ([2]; IMR-90, 72 h, Control, log (dose) [M] -7.66, 72 h, mean n=3 (Fig 3C), read-out: Mean % Cell Survival) of 110%, a viability at 0.01 µM ([2]; IMR-90, 72 h, Control, log (dose) [M] -8, 72 h, mean n=3 (Fig 3C), read-out: Mean % Cell Survival) of 98.2% and a viability at 4.677 µM ([2]; IMR-90, Control cells, log (dose) [M] -5.33, individual replicates, SUP FIG 4C, read-out: % Cell Survival) of 107%. It also gave a viability at 1 µM ([2]; IMR-90, Control cells, log (dose) [M] -6, individual replicates, SUP FIG 4C, read-out: % Cell Survival) of 109%, a viability at 0.2188 µM ([2]; IMR-90, Control cells, log (dose) [M] -6.66, individual replicates, SUP FIG 4C, read-out: % Cell Survival) of 99.3% and a viability at 0.1 µM ([2]; IMR-90, Control cells, log (dose) [M] -7, individual replicates, SUP FIG 4C, read-out: % Cell Survival) of 91%. For the same compound, the viability at 0.04677 µM ([2]; IMR-90, Control cells, log (dose) [M] -7.33, individual replicates, SUP FIG 4C, read-out: % Cell Survival) was 102%, the viability at 0.02188 µM ([2]; IMR-90, Control cells, log (dose) [M] -7.66, individual replicates, SUP FIG 4C, read-out: % Cell Survival) was 111% and the viability at 0.01 µM ([2]; IMR-90, Control cells, log (dose) [M] -8, individual replicates, SUP FIG 4C, read-out: % Cell Survival) was 93.6%. It also gave a viability at 4.68 µM ([2]; IMR-90, Control, log (dose) [M] -5.33, read-out: % Cell Survival) of 92.8%, a viability at 2.19 µM ([2]; IMR-90, Control, log (dose) [M] -5.66, read-out: % Cell Survival) of 83.4% and a viability at 0.468 µM ([2]; IMR-90, Control, log (dose) [M] -6.33, read-out: % Cell Survival) of 93.7%. For the same compound, the viability at 0.219 µM ([2]; IMR-90, Control, log (dose) [M] -6.66, read-out: % Cell Survival) was 88.1%, the viability at 0.1 µM ([2]; IMR-90, Control, log (dose) [M] -7, read-out: % Cell Survival) was 98.7% and the viability at 0.04677 µM ([2]; IMR-90, Control, log (dose) [M] -7.33, read-out: % Cell Survival) was 99.6%. It also gave a viability at 0.0219 µM ([2]; IMR-90, Control, log (dose) [M] -7.66, read-out: % Cell Survival) of 85.6%, a viability at 0.01 µM ([2]; IMR-90, Control, log (dose) [M] -8, read-out: % Cell Survival) of 99.5% and a viability at 10 µM ([3]; log (dose) [M] -5, 72 h) of 111%. It also gave a viability at 4.677 µM ([3]; log (dose) [M] -5.33, 72 h) of 115%, a viability at 2.188 µM ([3]; log (dose) [M] -5.66, 72 h) of 102% and a viability at 1 µM ([3]; log (dose) [M] -6, 72 h) of 113%. The viability at 0.4677 µM ([3]; log (dose) [M] -6.33, 72 h) was 95.4%, the viability at 0.2188 µM ([3]; log (dose) [M] -6.66, 72 h) was 95.9% and the viability at 0.1 µM ([3]; log (dose) [M] -7, 72 h) was 88.4%. The viability at 0.04677 µM ([3]; log (dose) [M] -7.33, 72 h) was 106%, the viability at 0.02188 µM ([3]; log (dose) [M] -7.66, 72 h) was 116% and the viability at 0.01 µM ([3]; log (dose) [M] -8, 72 h) was 104%.

Source: article PMC10257182, “Discovery of senolytics using machine learning” (Nature Communications, 2023)
